Experimental findings from ChEMBL document CHEMBL1201862, “PubChem BioAssay data set” (2004) are described below.

Some test systems named below: ACHN; NCI-H226; COLO 205; HCT-15; HOP-92; RXF 393; SK-OV-3; SF-295; T47D; A498; M14; OVCAR-5; EKVX; Hs-578T; MOLT-4; IGROV-1; SR; TK-10; MDA-MB-231; RPMI-8226.
What all share (assay): NCI tumour cell line growth inhibition, 48 h

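Exposure lasted 48 hours, with cells grown in 96-well plates and compounds tested at five concentrations. Here, GI50 denotes the concentration required for 50% inhibition of growth.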 Active and inactive are the calls of the source. No stated cut-off is given here; in the data, active = GI50 up to about 1.1 µM and inactive = higher.

On to `O=c1[nH]nc(Cc2ccc(Cl)cc2)n1/N=C\CC/C=N\n1c(Cc2ccc(Cl)cc2)n[nH]c1=O`, for which the GI50 was 56 µM (inactive) with ACHN; 18.4 µM (inactive) with NCI-H226; > 100 µM (inactive) in the assay with COLO 205; 35.2 µM in the assay on HCT-15; > 55.5 µM (inactive) with HOP-92; 15.1 µM (inactive) with RXF 393. Besides, the GI50 in the assay on SK-OV-3 is 31.5 µM (inactive); with SF-295, 24.4 µM (inactive); with T47D, 20 µM (inactive); in the assay on A498, > 69.5 µM (inactive); in the assay with M14, 32.8 µM (inactive); in the assay on OVCAR-5 it was > 100 µM (inactive). Further, the GI50 with EKVX is 21.3 µM (inactive); in the assay with Hs-578T it was 11.4 µM (inactive); in the assay on MOLT-4, > 24.1 µM (inactive); in the assay with IGROV-1, 9.93 µM (inactive); in the assay on SR, 3.1 µM (inactive); in the assay on TK-10, > 100 µM (inactive). Further, the GI50 is 25.8 µM (inactive) in the assay on MDA-MB-231 and > 33.3 µM (inactive) with RPMI-8226.
`O=P12N(CCN1c1ccccc1)CCN2c1ccccc1`: the GI50 in the assay on ACHN is > 100 µM (inactive); in the assay with NCI-H226, > 100 µM (inactive); in the assay with COLO 205, > 100 µM (inactive); in the assay with HCT-15 it was above 100 µM; in the assay with HOP-92, 80.7 µM (inactive); in the assay on RXF 393, > 100 µM (inactive). In addition, the GI50 with SK-OV-3 is > 100 µM (inactive); with SF-295 it was > 100 µM (inactive); with T47D, > 100 µM (inactive); with A498, > 100 µM (inactive); in the assay with M14, 66.8 µM (inactive); in the assay on OVCAR-5, > 100 µM (inactive). The GI50 in the assay on EKVX, with Hs-578T, in the assay on MOLT-4, with IGROV-1, in the assay with SR and in the assay with TK-10 was > 100 µM (inactive) each time. Besides, the GI50 with MDA-MB-231 and with RPMI-8226 was > 100 µM (inactive) in each case.
With `CC1=NN(c2nc(N)nc(/C(C#N)=C\c3ccc(-c4ccc([N+](=O)[O-])cc4)o3)n2)C(C)(C)C1`, the GI50 in the assay on ACHN is > 100 µM (inactive); in the assay on NCI-H226 it was > 100 µM (inactive); in the assay with COLO 205, > 100 µM (inactive); in the assay with HCT-15 it was above 100 µM; with HOP-92, > 100 µM (inactive); in the assay on RXF 393, > 100 µM (inactive). Besides, the GI50 in the assay with SK-OV-3, with SF-295, with T47D, in the assay with A498, in the assay with M14 and in the assay with OVCAR-5 was > 100 µM (inactive) throughout. The GI50 in the assay with EKVX is > 100 µM (inactive); in the assay with Hs-578T it was 62.2 µM (inactive); in the assay with MOLT-4, > 100 µM (inactive); with IGROV-1, > 100 µM (inactive); in the assay with SR, 11.1 µM (inactive); in the assay on TK-10, > 100 µM (inactive). Besides, the GI50 was 27.5 µM (inactive) in the assay on MDA-MB-231 and > 100 µM (inactive) in the assay with RPMI-8226.
`CCOC(=O)N1CCc2cc(OC)c(OC)c3c2c1cc1cc(OC)c(OC)cc13`: the GI50 was 4.11 µM (inactive) with ACHN; 4.33 µM (inactive) in the assay on NCI-H226; 0.787 µM (active) in the assay with COLO 205; 0.914 µM with HCT-15; 3.8 µM (inactive) in the assay on HOP-92; 2 µM (inactive) in the assay on RXF 393. Besides, the GI50 is 2.56 µM (inactive) in the assay with SK-OV-3; 0.927 µM (active) in the assay on SF-295; 2.79 µM (inactive) in the assay on T47D; 2.21 µM (inactive) with A498; 4.29 µM (inactive) with M14; 16.9 µM (inactive) in the assay with OVCAR-5. Moreover, the GI50 in the assay with EKVX was 8.97 µM (inactive); in the assay with Hs-578T it was 1.99 µM (inactive); in the assay with MOLT-4 it was 5.32 µM (inactive); in the assay with IGROV-1 it was 4.57 µM (inactive); with SR, 0.807 µM (active); in the assay with TK-10, 7.98 µM (inactive). For the same compound, the values for the GI50 in the assay with MDA-MB-231 and with RPMI-8226 were 5.96 µM (inactive) and 3.76 µM (inactive), respectively.
As to `CC#CC(O)(C(=O)OC1CC2CCC(C1)N2C)C1CCCC1` (stereo not given), the GI50 in the assay on ACHN was > 100 µM (inactive); in the assay on NCI-H226 it was > 100 µM (inactive); in the assay with COLO 205, > 100 µM (inactive); in the assay with HCT-15, above 100 µM; with HOP-92 it was > 100 µM (inactive); in the assay with RXF 393, > 100 µM (inactive). The GI50 with SK-OV-3, with SF-295, in the assay on T47D, in the assay on A498, in the assay with M14 and in the assay with OVCAR-5 was > 100 µM (inactive) throughout. The GI50 in the assay on EKVX, in the assay with Hs-578T, in the assay with MOLT-4, in the assay on IGROV-1, with SR and in the assay with TK-10 was > 100 µM (inactive) throughout. Also, the GI50 with MDA-MB-231 and in the assay with RPMI-8226 was > 100 µM (inactive) each time.
Regarding `Nc1nc(N)c(CCCCc2ccccc2)c(N)n1`, the GI50 with ACHN was > 100 µM (inactive); with NCI-H226, > 100 µM (inactive); in the assay on COLO 205, > 100 µM (inactive); in the assay with HCT-15 it was above 100 µM; in the assay with HOP-92 it was > 100 µM (inactive); in the assay on RXF 393 it was > 100 µM (inactive). In addition, the GI50 in the assay on SK-OV-3, with SF-295, with T47D, in the assay on A498, in the assay with M14 and in the assay on OVCAR-5 was > 100 µM (inactive) throughout. For the same compound, the GI50 was > 42.8 µM (inactive) with EKVX; > 100 µM (inactive) in the assay with Hs-578T; > 100 µM (inactive) with MOLT-4; > 100 µM (inactive) in the assay on IGROV-1; > 100 µM (inactive) with SR; > 100 µM (inactive) with TK-10. The GI50 in the assay on MDA-MB-231 and in the assay on RPMI-8226 was > 100 µM (inactive) throughout.
Take `N=C(N)N1CCC(N2CCOCC2)CC1`: the GI50 is > 100 µM (inactive) in the assay with ACHN; > 100 µM (inactive) in the assay with NCI-H226; > 100 µM (inactive) in the assay on COLO 205; above 100 µM in the assay on HCT-15; > 100 µM (inactive) in the assay with HOP-92; > 100 µM (inactive) in the assay with RXF 393. Besides, the GI50 in the assay with SK-OV-3, in the assay on SF-295, in the assay with T47D, in the assay with A498, in the assay on M14 and in the assay with OVCAR-5 was > 100 µM (inactive) each time. Besides, the GI50 in the assay on EKVX, in the assay with Hs-578T, in the assay with MOLT-4, in the assay with IGROV-1, in the assay with SR and in the assay with TK-10 was > 100 µM (inactive) throughout. For the same compound, the GI50 in the assay on MDA-MB-231 and in the assay on RPMI-8226 was > 100 µM (inactive) throughout.
Regarding `COc1c(O)c(O)c2c(c1O)C(=O)c1cc(C)cc(O)c1C2=O`, the GI50 was 40.3 µM (inactive) in the assay on ACHN; 20 µM (inactive) in the assay on NCI-H226; 24.5 µM (inactive) in the assay with COLO 205; 14.1 µM with HCT-15; 92 µM (inactive) in the assay with HOP-92; > 70.8 µM (inactive) with RXF 393. For the same compound, the GI50 in the assay on SK-OV-3 was 36.8 µM (inactive); with SF-295, 21.9 µM (inactive); in the assay with T47D it was 24.8 µM (inactive); in the assay on A498, 49.2 µM (inactive); in the assay on M14 it was 22.8 µM (inactive); with OVCAR-5 it was 43 µM (inactive). In addition, the GI50 was 22.4 µM (inactive) with EKVX; 19.6 µM (inactive) with Hs-578T; 15.4 µM (inactive) in the assay with MOLT-4; 13.2 µM (inactive) in the assay with IGROV-1; 31.6 µM (inactive) in the assay on SR; 49.3 µM (inactive) in the assay with TK-10. The GI50 in the assay with MDA-MB-231 was 12.2 µM (inactive); with RPMI-8226, 35.2 µM (inactive).
For `O=C(NCCc1ccc(F)cc1)c1cc(/C=C/c2cc(O)ccc2O)ccc1O`, the GI50 is 2.01 µM (inactive) in the assay with ACHN; 8.59 µM (inactive) with NCI-H226; 3.14 µM (inactive) with COLO 205; 2.26 µM with HCT-15; 1.85 µM (inactive) in the assay on HOP-92; 2.03 µM (inactive) in the assay with RXF 393. Moreover, the GI50 in the assay on SK-OV-3 was 13 µM (inactive); in the assay with SF-295 it was 16.1 µM (inactive); with T47D, 2.24 µM (inactive); with A498, 4.06 µM (inactive); with M14 it was 3.67 µM (inactive); in the assay with OVCAR-5, 6.64 µM (inactive). For the same compound, the GI50 with EKVX is 2.42 µM (inactive); in the assay on Hs-578T, 4.26 µM (inactive); with MOLT-4, 2.48 µM (inactive); in the assay on IGROV-1, 2.31 µM (inactive); in the assay with SR, 2.96 µM (inactive); in the assay with TK-10, 2.61 µM (inactive). Besides, the GI50 in the assay on MDA-MB-231 was 3.3 µM (inactive); with RPMI-8226, 3.01 µM (inactive).
For `COc1cccc(C(=O)C(O)c2cccc(OC)c2OC)c1OC` (stereo not given), the GI50 was > 100 µM (inactive) in the assay with ACHN; > 100 µM (inactive) in the assay with NCI-H226; > 100 µM (inactive) in the assay with COLO 205; above 100 µM in the assay with HCT-15; > 100 µM (inactive) in the assay on HOP-92; > 100 µM (inactive) in the assay on RXF 393. Moreover, the GI50 in the assay on SK-OV-3, with SF-295, in the assay on T47D, in the assay with A498, in the assay on M14 and in the assay on OVCAR-5 was > 100 µM (inactive) in each case. Also, the GI50 with EKVX, with Hs-578T, in the assay on MOLT-4, in the assay with IGROV-1, in the assay with SR and in the assay on TK-10 was > 100 µM (inactive) in each case. The GI50 in the assay on MDA-MB-231 and in the assay with RPMI-8226 was > 100 µM (inactive) in each case.
